Experimental data taken from patent publication US11389449B2, “Treatment of metabolic syndrome with an sGC stimulator” (Cyclerion Therapeutics, Inc., priority 2017, dated 2022).
“Also recorded” adds a separate entry of the source.

Legend:
[1] = tested on: obese/high fat diet C57Bl/6J mice; test: DIO mouse model: fasting plasma biomarkers and liver triglycerides; type: in vivo; conditions: DIO HFD mice, approx 6 mg/kg in diet
Description: The objective of this animal study was to evaluate the effects of Compound I in the mouse diet induced obesity (DIO) model. Assessments included body weight, food intake, oral glucose tolerance test (OGTT) and fasting plasma biomarkers of metabolic control.
Male C57Bl/6J mice with baseline body weights of 25.0-29.0 grams (lean controls) and 31.5-45.0 grams (obese/high fat diet treated) respectively, were used for this study. The lean mice (n=8) were maintained on a standard chow diet. The obese mice were given 60% high fat diet (HFD) starting at 6 weeks of age. All animals were allowed free access to drinking water and chow. The study was begun when the mice were 12 weeks of age and concluded after 4 weeks (16 weeks of age). The obese control group (n=8 mice) was maintained on HFD. The Compound I group (n=8 obese mice) was treated with HFD containing 90 mg Compound I/kg (an approximate dose of 6 mg/kg). Body weights were determined twice weekly and food intake was measured daily for 28 days. An OGTT was performed on each animal at day 28 or 29 and the animals were sacrificed on the following day. On the terminal day, 3 hour fasted blood was collected for compound concentrations and plasma biomarkers analysis including glucose, insulin and triglycerides. Organs were collected, weighed and snap frozen in liquid nitrogen for further analysis.

[2] = tested on: patients with stable type 2 diabetes and hypertension; test: Randomized placebo-controlled Phase 2a study of 2 dose regimens (NCT03091920), metabolic assessments; type: in vivo, human; conditions: for Apolipoprotein B Change LS Mean / Apolipoprotein B LS Mean Diff (placebo adjusted): serum; for serum triglycerides LS Mean Diff (placebo adjusted) / serum triglycerides LS Mean reduction from baseline: Day 15
Experimental: The serum ApoB level was determined using microsphere-based HSP-ApoB assay, consisting of using antigen-specific antibodies optimized in a capture-sandwich format. 5 μL of a diluted mixture of capture-antibody microspheres were mixed with 5 μL bloker and 10 μL standard, pre-diluted sample, or control in a hard-bottom microtiter plate. Plama and serum samples were diluted of the appropriate dilution. The plate was incubated for 1 hour at room temperature. 10 μL biotinylated detection antibody was added to each well, thoroughly-mixed and incubated for 1 hour. 10 μL diluted Streptavidin-phycoerythrin was added to each well, thoroughly mixed, and incubated for 60 minutes. A filter-membrane microtiter plate was pre-wetted by adding 100 μL wash buffer followed by aspiration via a vaccum manifoled device. The reaction contents of the hard-bottom plate were then transferred to the respective wells of the filter plate. All wells were vacuum aspirated and the contents were washed twice with 100 μL wash buffer. After the last wash, 100 μL wash buffer was added to each well, and the washed microspheres were resuspended with thorough mixing. The plate was then analyzed on the Luminex platform.
Plasma ADMA concentrations were determined by liquid chromatography and tandem mass spectrometry (LC-MS/MS). Plasma samples of the patients were collected in a purple-top container with K2 EDTA anticoagulant. The tube was filled completely and the sample was mixed well and separated by centrifugation. A minium volume of 0.20 mL was needed for testing and the plasma sample was extracted by a simple protein precipation. The supernatant was then transferred to a diluent before analysis. The extract was analyzed using liquid chromatography (LC) with tandem mass spectrometry (MS/MS). The standard curve was 10.0 ng/mL to 1000.0 ng/mL.
The primary objectives of this clinical study (ClinicalTrials.gov Identifier: NCT03091920) were to compare the safety, tolerability, PK profile, and PD effects of 2 treatment regimens of Compound I tablet (40 mg per day, as 20 mg BID or as 40 mg QD) administered orally for 2 weeks to patients with stable type 2 diabetes mellitus and hypertension. Patients in this trial were on stable medications for glucose control (blood glucose lowering medication, antihyperglycemics) and hypertension (antihypertensives). Secondary measurements included assessment of fasting glucose levels, fasting insulin levels, hemoglobin A1C (HbA1C) levels, serum cholesterol levels, ApoB levels, HOMA-IR, ADMA concentrations, serum triglyceride levels, BMI, liver transaminases and body weight, among others.
Allocation: Randomized; Intervention Model: Parallel Assignment; Masking: Triple (Participant, Care Provider, Investigator); Masking Description: Double-Blind; Primary Purpose: Treatment
This is a randomized, double-blind, placebo-controlled study consisting of 3 distinct periods (see FIG. 30).
13 male patients and 13 female patientes with stable type 2 diabetes and hypertension were enrolled. Patients were randomized in a 5:5:3 ratio (QD:BID:Placebo) to receive 1 of 2 Compound I treatment regimens or placebo (all regimens were masked) as outlined in the table above.
Clinic Period: The Clinic Period began at Check-in on Day-2 (2 days before dosing) and ended at the time of Discharge on Day 15. During the 17-day Clinic Period, patients were confined to the Study Center and received a standard diet for diabetics. Patients who met eligibility criteria based on Screening Visit assessments were admitted to the Study Center on Day-2 for baseline procedures. On the morning of Day 1 (there is no Day 0), eligible patients were randomized in a 5:5:3 ratio to 1 of 3 masked treatment regimens: QD/QD, BID/QD, or PBO/PBO. On Days 1 to 14, patients received a morning (AM) dose and an evening (PM) dose.
Compound I was administered as multiples of a 5 mg oral tablet dosage form. Placebo was administered as multiples of a 5 mg tablet. […]

[3] = 40 mg, regimens combined, 14 days
[4] = subgroup of 18 patients on concomitant statin therapy, regimens combined, 14 days

SMILES: OC(CNc1nc(-c2cc(-c3ccon3)n(Cc3ccccc3F)n2)ncc1F)(C(F)(F)F)C(F)(F)F [Compound I]
- Fasting plasma glucose ([1]; after 4 weeks): unchanged
- plasma insulin change vs obese controls ([1]; after 4 weeks, P<0.01): −53%
- plasma triglycerides change vs obese controls ([1]; after 4 weeks, P<0.01): −30%
- circulating and liver triglycerides ([1]; compared to obese controls): lowered
- HDL cholesterol levels ([2]; 40 mg total daily dose, over the trial): remained unchanged; also recorded: remained closed to baseline; also recorded: no changes
- mean serum ALT decrease from baseline [2, 3]: 4.9 IU/L
- mean serum AST decrease from baseline [2, 3]: 4.5 IU/L
- mean serum GGT decrease from baseline [2, 3]: 2.4 U/L
- Mean Apo-B levels decline in treated patients ([2]; 14 days): approximately 17%
- HbA1C levels over placebo ([2]; 14 days of treatment): No meaningful improvements
- plasma fasting glucose LS Mean reduction from baseline ([2]; BID/QD (20 mg BID days 1-7; 40 mg QD days 8 to 14), day 15): -35.3 mg/dL
- Apolipoprotein B Change LS Mean ([2]; BID/QD (N = 10), day 15): -219.4 µg/mL
- serum triglycerides LS Mean Diff (placebo adjusted) ([2]; BID/QD): -14.3 mg/dL
- serum triglycerides LS Mean reduction from baseline ([2]; BID/QD): -46.4 mg/dL
- LDL cholesterol Mean Diff (SE), placebo adjusted ([2]; BID/QD, day 15): −20.2 (9.2) mg/dL
- LDL cholesterol Mean reduction from baseline (SE), least square ([2]; BID/QD, day 15): −14.0 (5.6) mg/dL
- plasma fasting glucose LS Mean Diff (placebo adjusted) ([2]; BID/QD, day 15): -15.6 mg/dL
- serum cholesterol LS Mean Diff (placebo adjusted) ([2]; BID/QD, day 15): -20.9 mg/dL
- serum cholesterol LS Mean reduction from baseline ([2]; BID/QD, day 15): -20.2 mg/dL
- serum LDL cholesterol reduced when compared to placebo ([2]; BID/QD, day 15, after 14 days of treatment): about 20 mg/dL
- serum LDL cholesterol reduced when compared to placebo ([2]; BID/QD, day 15, % of total cholesterol): 13%
- Apolipoprotein B LS Mean Diff (placebo adjusted) ([2]; BID/QD, day 15): -168.9 µg/mL
- plasma fasting glucose LS Mean reduction from baseline ([2]; Combined group (BID/QD and QD/QD), day 15): -32.5 mg/dL
- serum triglycerides LS Mean Diff (placebo adjusted) ([2]; Combined group): -14.2 mg/dL
- serum triglycerides LS Mean reduction from baseline ([2]; Combined group): -46.2 mg/dL
- LDL cholesterol Mean Diff (SE), placebo adjusted ([2]; Combined group, day 15): −20.2 (8.3) mg/dL
- LDL cholesterol Mean reduction from baseline (SE), least square ([2]; Combined group, day 15): −13.9 (4.0) mg/dL
- plasma fasting glucose LS Mean Diff (placebo adjusted) ([2]; Combined group, day 15): -12.8 mg/dL
- serum cholesterol LS Mean Diff (placebo adjusted) ([2]; Combined group, day 15): -25.5 mg/dL
- serum cholesterol LS Mean reduction from baseline ([2]; Combined group, day 15): -24.7 mg/dL
- Apolipoprotein B Change LS Mean ([2]; Overall 40 mg Total Daily Dose (N = 20), day 15): -169.5 µg/mL
- plasma fasting glucose LS Mean reduction from baseline ([2]; QD/QD (40 mg QD days 1 to 14), day 15): -29.6 mg/dL
- Apolipoprotein B Change LS Mean ([2]; QD/QD (N = 10), day 15): -119.6 µg/mL
- serum triglycerides LS Mean Diff (placebo adjusted) ([2]; QD/QD): -14.0 mg/dL
- serum triglycerides LS Mean reduction from baseline ([2]; QD/QD): -46.0 mg/dL
- LDL cholesterol Mean Diff (SE), placebo adjusted ([2]; QD/QD, day 15): −19.9 (9.2) mg/dL
- LDL cholesterol Mean reduction from baseline (SE), least square ([2]; QD/QD, day 15): −13.7 (5.6) mg/dL
- plasma fasting glucose LS Mean Diff (placebo adjusted) ([2]; QD/QD, day 15): -10.0 mg/dL
- serum cholesterol LS Mean Diff (placebo adjusted) ([2]; QD/QD, day 15): -30.1 mg/dL
- serum cholesterol LS Mean reduction from baseline ([2]; QD/QD, day 15): -29.3 mg/dL
- serum LDL cholesterol reduced when compared to placebo ([2]; QD/QD, day 15, after 14 days of treatment): about 20 mg/dL
- serum LDL cholesterol reduced when compared to placebo ([2]; QD/QD, day 15, % of total cholesterol): 13%
- Apolipoprotein B LS Mean Diff (placebo adjusted) ([2]; QD/QD, day 15): -69.1 µg/mL
- fasting plasma insulin levels over placebo ([2]; all of 26 patients, including those on insulin therapy): no meaningful improvements
- ADMA plasma concentration decrease from baseline ([2]; combined Compound I group, 14 day study, baseline of 105 ng/ml): 8.7 ng/mL
- ADMA plasma concentration mean reduction adjusted to placebo ([2]; combined group, after 14 days of treatment): about 11 ng/mL
- serum ALT change compared to baseline ([2]; over 14 days): −4.9 IU/L
- serum ALT reduction compared to baseline ([2]; over 14 days): 20%
- serum AST change compared to baseline ([2]; over 14 days): −4.5 IU/L
- serum AST reduction compared to baseline ([2]; over 14 days): 20%
- weight or BMI, adjusted to placebo ([2]; over the 14 days of treatment): No meaningful changes
- fasting plasma insulin change adjusted to placebo ([2]; patients not on insulin): -13 pmol/L
- reduction in HOMA-IR from baseline ([2]; patients not taking concomitant insulin (12 on Compound I), 14 days): 36%
- reduction in HOMA-IR adjusted to placebo ([2]; patients not taking concomitant insulin, 14 days): 23%
- apolipoprotein B decline, Compound I vs. PBO-treated patients ([2]; post-hoc analysis, 14 days): -119 µg/mL
- LDL cholesterol decrease in treated vs. placebo patients [2, 4]: -16 mg/dL
- total cholesterol decrease in treated vs. placebo patients [2, 4]: -17 mg/dL
- mean decrease of plasma blood glucose relative to placebo ([2]; subgroup using only oral antihyperglycemic agents without insulin, regimens combined, 14 days): -19 mg/dL
